According to PMC12293604, “Anticancer Effect of Nature-Inspired Indolizine-Based Pentathiepines in 2D and 3D Cellular Model” (Cancers, 2025):

Columns and labels:
MDA-MB231 [1] = assay: MTT cell viability assay, MDA-MB231; assay type: cell-based; conditions: Homo sapiens, MDA-MB-231, MDA-MB231, 48h treatment, mean ± S.D.
Method: (§1) The human cancer cell lines MCF7 (HTB-22, breast adenocarcinoma), MDA-MB-231 (HTB-26, breast adenocarcinoma), HCT116 (CCL-247, colorectal carcinoma), and A549 (CRM-CCL-185, lung carcinoma) were obtained from the American Type Culture Collection (ATCC, Manassas, VA, USA). The fibroblast cell line CR9, kindly provided by Dr. Guven, was maintained in ISCOVE medium. HCT116 cells were cultured in Dulbecco’s Modified Eagle Medium (DMEM), whereas A549, MCF7, and MDA-MB-231 cells were maintained in Roswell Park Memorial Institute 1640 (RPMI-1640) medium. All media were supplemented with 10% fetal bovine serum (FBS), 1% L-glutamine, and 0.5% antibiotic mixture (penicillin, streptomycin, and neomycin). Cell cultures were maintained at 37 °C in a humidified atmosphere with 5% CO2, following standard culture protocols. Additionally, for HCT116 cells, the culture medium was further supplemented with 1% sodium pyruvate and 1% non-essential amino acids.
(§2) To evaluate the impact of the tested PTEs on cell viability, a colorimetric MTT assay was performed as previously described. Briefly, cells were seeded in 96-well microplates at initial densities of 5 × 10^3 cells per well for the MCF7, MDA-MB231, and A549 cell lines, and 4 × 10^3 cells per well for HCT116 cells. After an initial 24 h incubation period to allow for cell attachment and growth, the cultures were treated with different concentrations of PTEs (0.25–20 µM). Following 48 h of treatment, 50 μL of MTT solution (2 mg/mL in PBS) was added to each well, and the plates were incubated at 37 °C for 3 h to allow for MTT reduction by metabolically active cells. The resulting formazan crystals were solubilized, and cell viability was measured by recording the absorbance at 570 nm using an iMark Microplate Reader (BIORAD, Segrate, Milan, Italy). The cytotoxic effectiveness of the compounds was expressed as IC50 values, which were calculated from dose–response curves fitted with non-linear regression analysis using Calcusyn version 1.1.4. software (Biosoft, Cambridge, UK).

[2] = test system: MCF7, MDA-MB231, A549 and HCT116 cells; assay: Intracellular ROS levels (DCFH-DA), summary across cell lines; assay type: cell-based, human; conditions: 48 h at IC50 concentration, four cell lines
Method: (§3) Intracellular ROS levels were quantified using 2′,7′-dichlorodihydrofluorescein diacetate (DCFH-DA) as a fluorescent probe. After 48 h of treatment, cells were collected, rinsed with PBS, and incubated in a PBS solution containing 10 µM DCFH-DA. Following incubation, fluorescence corresponding to oxidized fluorescein was measured using a 530 nm band-pass filter. ROS production was expressed in arbitrary units based on the median fluorescence intensity (MFI).

[3] = test system: MCF7, MDA-MB231, A549 and HCT116 cells; assay: Apoptotic cell death, flow cytometry (sub-G1, PI); assay type: cell-based, human; conditions: 48 h treatment at IC50 concentration, vs. untreated controls
Method: (§4) The potential of the tested PTE derivatives to induce apoptotic and/or necrotic cell death, as well as to cause alterations in cell cycle distribution, was evaluated following a 48 h exposure to their respective IC50 concentrations, using flow cytometric analysis as previously described. Briefly, the indicated cell lines were seeded in 12-well plates (3 × 10^5 cells/well) and treated 24 h post-seeding. At the end of the treatment period, following harvesting, cells were washed with PBS and fixed in ice-cold 70% ethanol at −20 °C for a minimum duration of 45 min, to assess apoptotic cell death and perform cell cycle analysis. After fixation, cells were washed again with PBS and stained with a propidium iodide (PI)/RNase solution (50 µg/mL PI and 30 U/mL RNase) in PBS for 15 min at room temperature.
(§5) Flow cytometric analysis was performed using a FACScalibur flow cytometer (Becton Dickinson, Milan, Italy), equipped with a 15 mW, 488 nm air-cooled argon ion laser. Data were acquired and analyzed with CellQuestPRO version 5.1 software. PI fluorescence was detected using a 575 nm band-pass filter. The percentage of apoptotic cells was determined by identifying sub-G1 peaks in monoparametric histograms obtained in logarithmic mode. For cell cycle distribution, PI fluorescence was also analyzed with monoparametric histograms, but data were collected in linear mode.

[4] = test system: MCF7, MDA-MB231, A549 and HCT116 cell lines; assay: Hydrosulfide production (DNS-N3 probe), summary across cell lines; assay type: cell-based, human; conditions: 48 h at IC50 concentration, all cell lines
Method: (§6) PTEs-induced sulfide production was evaluated using dansyl azide (DNS-N3) as a probe. DNS-N3 is non-fluorescent itself, while in the presence of hydrosulfide, the azide transforms into the dansyl amide and fluorescence is switched on. After 48 h of treatment, cells were harvested, washed with PBS, and incubated in a PBS solution containing 200 μM DNS-N3. Following 30 min incubation at 37 °C, fluorescence increase was measured through a 575 nm band-pass filter. The levels of hydrosulfide production were assessed and reported in arbitrary units, calculated from the median fluorescence intensity (MFI) measurements. For all flow cytometric analyses, untreated cells (i.e., not exposed to PTE compounds) were used as negative controls.

HCT116 [5] = assay: Necrotic cell death, flow cytometry (PI without fixation), HCT116; assay type: cell-based, human; conditions: HCT116, 48 h treatment at IC50 concentration
Method: as §4, §5
Necrotic cell death was assessed by omitting the ethanol fixation step from the staining protocol, thereby enabling propidium iodide (PI) to penetrate membrane-compromised cells, indicative of necrosis.

MDA-MB231 [6] = assay: Cell cycle distribution, flow cytometry, MDA-MB231; assay type: cell-based, human; conditions: MDA-MB231, 48 h at equitoxic (IC50) concentrations
Method: as §4, §5

MCF7 [7] = assay: Intracellular ROS levels (DCFH-DA), MCF7; assay type: cell-based, human; conditions: MCF7, 48 h at IC50 concentration, vs. CTR
Method: as §3

[8] = test system: CR9 human fibroblast cells; assay: MTT cell viability assay, CR9 fibroblasts; assay type: cell-based; conditions: 48h treatment, mean ± S.D.
Method: as §1, §2

A549 = assay: MTT cell viability assay, A549; assay type: cell-based; conditions: Homo sapiens, A549, 48h treatment, mean ± S.D.
Method: as §1, §2

HCT116 [9] = assay: Cell cycle distribution, flow cytometry, HCT116; assay type: cell-based, human; conditions: HCT116, 48 h at equitoxic (IC50) concentrations
Method: as §4, §5

MCF7 [10] = assay: MTT cell viability assay, MCF7; assay type: cell-based; conditions: Homo sapiens, MCF7, 48h treatment, mean ± S.D.
Method: as §1, §2

HCT116 [11] = assay: MTT cell viability assay, HCT116; assay type: cell-based; conditions: Homo sapiens, HCT-116, HCT116, 48h treatment, mean ± S.D.
Method: as §1, §2

[12] = test system: MCF7, MDA-MB-231, A549, and HCT116 cells; assay: MTT cell viability assay, summary across the cell line panel; assay type: cell-based, human; conditions: 48 h treatment, across tested cell lines
Method: The fibroblast cell line CR9, kindly provided by Dr. Guven, was maintained in ISCOVE medium. […] All media were supplemented with 10% fetal bovine serum (FBS), 1% L-glutamine, and 0.5% antibiotic mixture (penicillin, streptomycin, and neomycin). Cell cultures were maintained at 37 °C in a humidified atmosphere with 5% CO2, following standard culture protocols. Additionally, for HCT116 cells, the culture medium was further supplemented with 1% sodium pyruvate and 1% non-essential amino acids.
as §2, with “Following 48 h of treatment, 50 μL of MTT solution (2 mg/mL in PBS) was added to each well, and the plates were incubated at 37 °C for 3 h to allow for MTT reduction by metabolically active cells.” left out

MDA-MB231 [13] = assay: Intracellular ROS levels (DCFH-DA), MDA-MB231; assay type: cell-based, human; conditions: MDA-MB231, 48 h at IC50 concentration, vs. CTR
Method: as §3

HCT116 [14] = assay: Hydrosulfide production (DNS-N3 probe), HCT116; assay type: cell-based, human; conditions: HCT116, 48 h at IC50 concentration
Method: as §6

`Cc1c2c(c3ccccn13)SSSSS2` [2^Me] was tested, and the IC50 (MDA-MB231 [1]) was 1450 ± 40 nM, the “ROS production (ranking in words)” value [2] was “better ROS producers” and the apoptotic cell death [3] was “most potent inducers of apoptosis”. The “sulfide production (in words)” value [4] was “most potent inducers of sulfide production”, the “necrosis relative to apoptosis” value (HCT116 [5]) was “higher levels of necrosis relative to apoptosis” and the “cell cycle shift: decrease in the G0/G1 phase population with G2/M phase accumulation” value (MDA-MB231 [6]) was “triggered similar effects”. The “increase in ROS production” value (MCF7 [7]) was “statistically significant”, the IC50 [8] was 7910 ± 320 nM and the IC50 (A549) was 2540 ± 270 nM. The “cell cycle shift: decrease in the G0/G1 phase population with G2/M phase accumulation” value (HCT116 [9]) was “triggered similar effects”, the IC50 (MCF7 [10]) was 4770 ± 140 nM and the IC50 (HCT116 [11]) was 2270 ± 340 nM. For the same compound, the “cytotoxic potency (in words)” value [12] was “noteworthy efficacy”, the “cytotoxic potency (in words)” value ([12]; listed as 2^PG) was “highest cytotoxic potency” and the “cytotoxic potency (in words)” value ([12]; listed as 2^Ph) was “lowest cytotoxic activity”. The “increase in ROS production” value (MDA-MB231 [13]) was “statistically significant” and the sulfide increase (HCT116 [14]) was “did not induce sulfide increase”.
